Assay [1] deals with Coagulation factor X (Homo sapiens, UniProt P00742). Nature of the assay: Compound was evaluated for the inhibitory activity against Coagulation factor X.
In assay [2] the target is Vitamin K-dependent protein C (Homo sapiens, UniProt P04070). The assay is described as follows: Compound was evaluated for the inhibitory activity against Activated protein C.
Assay [3] deals with Plasminogen (Homo sapiens, UniProt P00747). Nature of the assay: Compound was evaluated for the inhibitory activity against plasmin.
The target in assay [4] is Prothrombin (Homo sapiens, UniProt P00734). The assay is described as follows: Compound was evaluated for the inhibitory activity against thrombin.
Assay [5] deals with T1, Serine protease 1 (Homo sapiens, UniProt P07477). Nature of the assay: Compound was evaluated for the inhibitory activity against trypsin.
In assay [6] the target is T2, Tissue-type plasminogen activator (Homo sapiens, UniProt P00750). The assay is described as follows: Compound was evaluated for the inhibitory activity against t-PA.
For assay [7], the target named is T1, Serine protease 1. Nature of the assay: Compound was evaluated for the inhibitory activity against trypsin.
The target in assay [8] is T2, Tissue-type plasminogen activator. Nature of the assay: Compound was evaluated for the inhibitory activity against t-PA.

In general, Ki refers to the dissociation constant of the complex between target and ligand, obtained from inhibition or displacement.

Sequence of Coagulation factor X (P00742 41-179 limits assumed): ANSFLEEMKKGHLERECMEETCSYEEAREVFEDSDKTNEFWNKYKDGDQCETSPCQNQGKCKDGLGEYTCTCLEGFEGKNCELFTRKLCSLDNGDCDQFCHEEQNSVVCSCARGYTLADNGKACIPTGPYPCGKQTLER
Sequence of Coagulation factor X (P00742 235-488 limits assumed): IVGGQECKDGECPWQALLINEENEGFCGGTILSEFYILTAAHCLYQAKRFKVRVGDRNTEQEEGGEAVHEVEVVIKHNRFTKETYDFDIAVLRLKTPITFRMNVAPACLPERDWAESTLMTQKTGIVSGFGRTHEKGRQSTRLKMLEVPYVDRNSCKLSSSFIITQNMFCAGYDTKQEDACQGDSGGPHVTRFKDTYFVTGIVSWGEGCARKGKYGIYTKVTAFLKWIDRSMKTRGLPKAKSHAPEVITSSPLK
T1 sequence (P07477 whole entry): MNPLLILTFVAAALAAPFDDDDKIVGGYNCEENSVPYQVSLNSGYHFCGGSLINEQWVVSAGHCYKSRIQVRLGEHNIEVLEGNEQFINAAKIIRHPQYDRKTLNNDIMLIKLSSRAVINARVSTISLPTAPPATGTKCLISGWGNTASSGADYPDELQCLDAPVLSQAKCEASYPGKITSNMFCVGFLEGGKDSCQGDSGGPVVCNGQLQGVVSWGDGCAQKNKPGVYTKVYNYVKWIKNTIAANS
Sequence of Plasminogen (P00747 97-580 limits assumed): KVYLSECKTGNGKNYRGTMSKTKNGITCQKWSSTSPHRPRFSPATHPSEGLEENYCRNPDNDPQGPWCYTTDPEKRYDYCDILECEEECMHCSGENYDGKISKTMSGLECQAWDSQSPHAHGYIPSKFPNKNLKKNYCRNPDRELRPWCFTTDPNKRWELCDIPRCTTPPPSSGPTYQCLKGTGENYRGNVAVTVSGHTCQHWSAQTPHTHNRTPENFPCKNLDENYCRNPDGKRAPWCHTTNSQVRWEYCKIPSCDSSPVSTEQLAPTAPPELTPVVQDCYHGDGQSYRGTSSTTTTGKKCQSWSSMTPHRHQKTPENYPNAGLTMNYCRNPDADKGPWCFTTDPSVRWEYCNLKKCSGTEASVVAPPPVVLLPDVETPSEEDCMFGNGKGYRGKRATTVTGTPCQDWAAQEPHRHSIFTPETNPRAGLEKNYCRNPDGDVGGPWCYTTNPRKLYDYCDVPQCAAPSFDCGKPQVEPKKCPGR
Sequence of Plasminogen (P00747 581-810 limits assumed): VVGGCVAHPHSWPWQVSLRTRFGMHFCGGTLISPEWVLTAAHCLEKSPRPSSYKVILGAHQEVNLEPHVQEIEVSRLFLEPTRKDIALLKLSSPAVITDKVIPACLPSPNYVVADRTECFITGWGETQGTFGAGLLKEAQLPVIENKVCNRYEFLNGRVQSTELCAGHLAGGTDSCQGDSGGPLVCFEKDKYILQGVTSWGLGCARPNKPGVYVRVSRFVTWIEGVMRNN
T2 sequence (P00750 whole entry): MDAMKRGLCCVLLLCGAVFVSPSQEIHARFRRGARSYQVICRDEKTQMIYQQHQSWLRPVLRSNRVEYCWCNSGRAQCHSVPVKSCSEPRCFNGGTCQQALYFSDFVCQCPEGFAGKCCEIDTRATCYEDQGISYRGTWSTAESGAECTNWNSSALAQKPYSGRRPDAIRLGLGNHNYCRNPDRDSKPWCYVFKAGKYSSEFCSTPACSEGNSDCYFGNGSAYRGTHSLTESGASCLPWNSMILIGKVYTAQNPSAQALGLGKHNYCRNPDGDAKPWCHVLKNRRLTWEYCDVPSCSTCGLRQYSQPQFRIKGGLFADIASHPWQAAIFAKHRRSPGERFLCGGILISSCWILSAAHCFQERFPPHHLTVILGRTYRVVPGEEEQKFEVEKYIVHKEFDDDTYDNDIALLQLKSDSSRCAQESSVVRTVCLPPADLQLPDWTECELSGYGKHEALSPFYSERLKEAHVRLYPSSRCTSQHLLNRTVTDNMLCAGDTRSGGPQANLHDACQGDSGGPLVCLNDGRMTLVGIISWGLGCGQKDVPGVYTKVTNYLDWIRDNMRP
Sequence of Vitamin K-dependent protein C (P04070 43-197 limits assumed): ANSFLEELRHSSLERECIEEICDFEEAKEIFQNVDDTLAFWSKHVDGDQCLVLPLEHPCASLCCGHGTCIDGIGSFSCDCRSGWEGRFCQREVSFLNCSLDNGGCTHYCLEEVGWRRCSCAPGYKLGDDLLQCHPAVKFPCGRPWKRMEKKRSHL
Sequence of Vitamin K-dependent protein C (P04070 212-461 limits assumed): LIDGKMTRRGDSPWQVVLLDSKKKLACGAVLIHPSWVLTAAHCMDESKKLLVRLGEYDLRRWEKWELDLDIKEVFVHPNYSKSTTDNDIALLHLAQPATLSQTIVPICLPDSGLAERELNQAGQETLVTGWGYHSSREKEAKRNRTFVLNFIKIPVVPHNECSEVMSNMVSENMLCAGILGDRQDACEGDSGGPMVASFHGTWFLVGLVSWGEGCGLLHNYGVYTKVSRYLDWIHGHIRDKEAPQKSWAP

`O=C(CN1CCN(S(=O)(=O)c2cc3ccc(Cl)cc3s2)CC1=O)NCCc1ccncc1` had a Ki in assay [1] of 59 nM.

Molecule `O=C(CN1CCN(S(=O)(=O)c2cc3ccc(Cl)cc3s2)CC1=O)NCCn1ccnc1` registered a Ki in assay [1] above 1200 nM. As for `O=C(CN1CCN(S(=O)(=O)c2cc3ccc(Cl)cc3s2)CC1=O)NCCc1cnc[nH]1`, the Ki in assay [2] is above 18 µM; in assay [1] it was 21 nM; in assay [3], above 7.3 µM; in assay [4], above 4 µM; in assay [5], above 2900 nM; in assay [6], above 8.7 µM.

For the molecule `O=C(CN1CCN(S(=O)(=O)c2cc3ccc(Cl)cc3s2)CC1=O)NCCc1cscn1`, in assay [1], the inhibitory constant (Ki) was determined as 160 nM. `Nc1nc(CCNC(=O)CN2CCN(S(=O)(=O)c3cc4ccc(Cl)cc4s3)CC2=O)cs1` had a Ki in assay [1] of 620 nM. As for `Cc1ncsc1CCNC(=O)CN1CCN(S(=O)(=O)c2cc3ccc(Cl)cc3s2)CC1=O`, the Ki in assay [1] was 270 nM. On the same count and under the same terms, in the case of `O=C(CN1CCN(S(=O)(=O)c2cc3ccc(Cl)cc3s2)CC1=O)Nc1ccncn1` it was 97 nM. Still for that read-out and setting: in the case of `COC(=O)[C@H](Cc1c[nH]cn1)NC(=O)CN1CCN(S(=O)(=O)c2cc3ccc(Cl)cc3s2)CC1=O` it was above 1200 nM. The same measure, in the same setting: the figure for `O=C(CN1CCN(S(=O)(=O)c2cc3ccc(Cl)cc3s2)CC1=O)Nc1ccncc1` is 170 nM; for `O=C(CN1CCN(S(=O)(=O)c2cc3ccc(Cl)cc3s2)CC1=O)NCCc1ccccn1` it is 140 nM. In the case of `Cn1cncc1CCNC(=O)CN1CCN(S(=O)(=O)c2cc3ccc(Cl)cc3s2)CC1=O`, the Ki in assay [2] was above 18 µM; in assay [1], 12 nM; in assay [3] it was above 7.3 µM; in assay [4], above 4 µM; in assay [7] it was above 2900 nM; in assay [8], above 8.7 µM. Regarding `Cc1[nH]cnc1CCNC(=O)CN1CCN(S(=O)(=O)c2cc3ccc(Cl)cc3s2)CC1=O`, in assay [1], the Ki was 340 nM. Still for that read-out and setting: in the case of `Cn1cnc(CCNC(=O)CN2CCN(S(=O)(=O)c3cc4ccc(Cl)cc4s3)CC2=O)c1` it was 430 nM. Same read-out and setting: in the case of `O=C(CN1CCN(S(=O)(=O)c2cc3ccc(Cl)cc3s2)CC1=O)NCCCn1ccnc1` it was above 1200 nM; in that of `Nc1cc(CCNC(=O)CN2CCN(S(=O)(=O)c3cc4ccc(Cl)cc4s3)CC2=O)ccn1`, 140 nM. Still for that read-out and setting: the figure for `O=C(CN1CCN(S(=O)(=O)c2cc3ccc(Cl)cc3s2)CC1=O)NCCc1cccnc1` is 250 nM; for `O=C(CN1CCN(S(=O)(=O)c2cc3ccc(Cl)cc3s2)CC1=O)Nc1ccccc1` it is above 1200 nM.

In the case of `Cn1cccc1CCNC(=O)CN1CCN(S(=O)(=O)c2cc3ccc(Cl)cc3s2)CC1=O`, in assay [1], the Ki was above 1200 nM. `O=C(CN1CCN(S(=O)(=O)c2cc3ccc(Cl)cc3s2)CC1=O)NCCc1c[nH]c(S)n1` gave a Ki in assay [1] of 620 nM. On the same count and under the same terms, in the case of `O=C(CN1CCN(S(=O)(=O)c2cc3ccc(Cl)cc3s2)CC1=O)NCc1cccnc1` it was above 1200 nM; in that of `O=C(CN1CCN(S(=O)(=O)c2cc3ccc(Cl)cc3s2)CC1=O)Nc1cccnc1`, above 1200 nM. On the same count and under the same terms, in the case of `CN(C(=O)CN1CCN(S(=O)(=O)c2cc3ccc(Cl)cc3s2)CC1=O)c1ccncc1` it was above 1200 nM. In assay [1], `O=C(CN1CCN(S(=O)(=O)c2cc3ccc(Cl)cc3s2)CC1=O)NC1CCNCC1` came in with an inhibitory constant (Ki) above 1200 nM. Take `COC(=O)[C@@H](Cc1cnc[nH]1)NC(=O)CN1CCN(S(=O)(=O)c2cc3ccc(Cl)cc3s2)CC1=O`: in assay [1], the Ki was above 1200 nM.

The record behind these values is ChEMBL document CHEMBL1133063, “Nonbenzamidine compounds as selective factor Xa inhibitors” (Bioorg Med Chem Lett, 2000).
